Laboratory results taken from ChEMBL document CHEMBL1201862, “PubChem BioAssay data set” (2004).
The source made the active and inactive calls.

Legend:
HEK293 [1] = experiment: cells; details: Homo sapiens
HEK293 [2] = experiment: cells; details: Homo sapiens; remark: listed apart in the source
Vero [3] = experiment: cells; format: functional, cell-based; details: Chlorocebus sabaeus
[4] = inhibitors of intracellular T. cruzi replication, confirmation, NIH3T3 host cells, beta-gal luminescence (AID 2044); format: functional, cell-based;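 also: intracellular parasites grown in NIH/3T3 mouse fibroblasts as host cells; luminescent beta-galactosidase reporter signal from transgenic T. cruzi replicating inside host cells; inhibitors lower the luminescence signal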
cells [5] = experiment: cells
[6] = cytotoxicity toward NIH3T3 fibroblasts, dose response, counter-screen, cell-based, ATP luminescence, mouse fibroblasts (AID 2010); format: functional;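 also: cells exposed to compound for about 90 hours before reading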
[7] = HEp-2 cell cytotoxicity, dose response, cytotoxicity control for RSV inhibitor project, HTS (AID 2410); format: functional; details: human respiratory syncytial virus
[8] = microbe, parasite or virus in culture; format: functional; details: Mycobacterium tuberculosis
Melanocortin receptor 4 = Melanocortin receptor 4 (Homo sapiens, UniProt P32245); format: functional, cell-based;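 also: Cell-based assay with luminescence read-out, confirmatory dose-response testing for agonist activity of biased ligands at MC4R; human U2OS cells with tagged receptor and beta-arrestin; potency of agonists that increase receptor coupling to beta-arrestin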
Sequence of Melanocortin receptor 4 (P32245 whole entry): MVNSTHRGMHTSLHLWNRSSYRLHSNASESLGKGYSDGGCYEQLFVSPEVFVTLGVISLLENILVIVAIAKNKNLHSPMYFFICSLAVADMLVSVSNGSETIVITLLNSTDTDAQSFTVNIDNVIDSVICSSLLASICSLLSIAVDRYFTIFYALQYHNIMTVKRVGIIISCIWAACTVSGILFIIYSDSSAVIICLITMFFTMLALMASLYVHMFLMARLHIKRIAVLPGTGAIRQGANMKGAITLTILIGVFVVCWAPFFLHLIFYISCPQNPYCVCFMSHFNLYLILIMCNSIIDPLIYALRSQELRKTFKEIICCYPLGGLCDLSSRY

[9] = target: Dual specificity tyrosine-phosphorylation-regulated kinase 1A (Rattus norvegicus, UniProt Q63470); format: biochemical, Homo sapiens
[10] = target: T1, Low molecular weight phosphotyrosine protein phosphatase (Homo sapiens, UniProt P24666); format: functional; details: read-out: IC50_Mean
T1 sequence (P24666 whole entry): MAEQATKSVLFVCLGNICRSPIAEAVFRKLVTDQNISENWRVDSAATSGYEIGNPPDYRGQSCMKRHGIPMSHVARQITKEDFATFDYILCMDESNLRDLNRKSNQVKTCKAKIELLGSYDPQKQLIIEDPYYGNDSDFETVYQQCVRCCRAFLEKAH

[11] = target: T1, Low molecular weight phosphotyrosine protein phosphatase; format: functional; details: read-out: IC50_Mean; remark: listed apart in the source
[12] = Vero E6 cell cytotoxicity, dose response, cytotoxicity control for non-replicating M. tuberculosis project, secondary assay (AID 492998); format: functional, VeroE6; details: Vero C1008
cells [13] = format: functional
[14] = target: T2, Sentrin-specific protease 8 (Homo sapiens, UniProt Q96LD8); format: functional
T2 sequence (Q96LD8 whole entry): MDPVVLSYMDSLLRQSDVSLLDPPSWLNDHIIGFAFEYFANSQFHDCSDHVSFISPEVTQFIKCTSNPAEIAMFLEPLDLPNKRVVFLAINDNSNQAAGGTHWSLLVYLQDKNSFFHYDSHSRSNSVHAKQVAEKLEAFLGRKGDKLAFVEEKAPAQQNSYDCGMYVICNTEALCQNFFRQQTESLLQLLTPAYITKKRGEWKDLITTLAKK

[15] = target: T2, Sentrin-specific protease 8; format: functional; remark: listed apart in the source
[16] = target: T3, High affinity choline transporter 1 (Homo sapiens, UniProt Q9GZV3); experiment: CHT inhibitors, dose response, cell-based, 5-point CRC, membrane potential dye (AID 504840); format: functional
T3 sequence (Q9GZV3 whole entry): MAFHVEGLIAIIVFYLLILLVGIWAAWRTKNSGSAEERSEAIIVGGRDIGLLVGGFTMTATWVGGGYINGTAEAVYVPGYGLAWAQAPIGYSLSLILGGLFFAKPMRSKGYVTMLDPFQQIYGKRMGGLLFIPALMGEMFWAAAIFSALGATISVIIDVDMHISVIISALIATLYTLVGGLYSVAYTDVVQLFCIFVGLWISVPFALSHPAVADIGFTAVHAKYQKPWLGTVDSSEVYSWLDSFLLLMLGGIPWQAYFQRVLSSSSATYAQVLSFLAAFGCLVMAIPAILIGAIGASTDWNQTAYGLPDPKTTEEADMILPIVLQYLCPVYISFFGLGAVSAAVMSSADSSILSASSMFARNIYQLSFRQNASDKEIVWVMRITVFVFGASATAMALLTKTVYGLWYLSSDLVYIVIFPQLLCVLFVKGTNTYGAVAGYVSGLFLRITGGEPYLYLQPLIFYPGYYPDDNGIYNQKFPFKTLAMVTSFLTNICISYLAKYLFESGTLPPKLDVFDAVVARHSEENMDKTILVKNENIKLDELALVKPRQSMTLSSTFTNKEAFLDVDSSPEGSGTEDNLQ

Vero [17] = experiment: cells; format: functional; details: Chlorocebus sabaeus
[18] = HeLa cell cytotoxicity, dose response, cytotoxicity control for MgcRacGAP inhibitor project (AID 624300); format: functional
[19] = Fluorescence-based cell-based high throughput dose response assay for inhibitors of the interaction of nucleotide-binding oligomerization domain containing 2 (NOD2) and the receptor-interacting serine-threonine kinase 2 (RIPK2).; format: functional; details: Homo sapiens
[20] = Luminescence Cell-Based Dose Retest to Confirm Inhibitors of Cancer Stem Cells. [Related pubchem assays (depositor defined):AID2717, AID2721]; format: functional; details: Homo sapiens
[21] = target: T4, Histone-lysine N-methyltransferase NSD2 (Homo sapiens, UniProt O96028); format: biochemical
T4 sequence (O96028 whole entry): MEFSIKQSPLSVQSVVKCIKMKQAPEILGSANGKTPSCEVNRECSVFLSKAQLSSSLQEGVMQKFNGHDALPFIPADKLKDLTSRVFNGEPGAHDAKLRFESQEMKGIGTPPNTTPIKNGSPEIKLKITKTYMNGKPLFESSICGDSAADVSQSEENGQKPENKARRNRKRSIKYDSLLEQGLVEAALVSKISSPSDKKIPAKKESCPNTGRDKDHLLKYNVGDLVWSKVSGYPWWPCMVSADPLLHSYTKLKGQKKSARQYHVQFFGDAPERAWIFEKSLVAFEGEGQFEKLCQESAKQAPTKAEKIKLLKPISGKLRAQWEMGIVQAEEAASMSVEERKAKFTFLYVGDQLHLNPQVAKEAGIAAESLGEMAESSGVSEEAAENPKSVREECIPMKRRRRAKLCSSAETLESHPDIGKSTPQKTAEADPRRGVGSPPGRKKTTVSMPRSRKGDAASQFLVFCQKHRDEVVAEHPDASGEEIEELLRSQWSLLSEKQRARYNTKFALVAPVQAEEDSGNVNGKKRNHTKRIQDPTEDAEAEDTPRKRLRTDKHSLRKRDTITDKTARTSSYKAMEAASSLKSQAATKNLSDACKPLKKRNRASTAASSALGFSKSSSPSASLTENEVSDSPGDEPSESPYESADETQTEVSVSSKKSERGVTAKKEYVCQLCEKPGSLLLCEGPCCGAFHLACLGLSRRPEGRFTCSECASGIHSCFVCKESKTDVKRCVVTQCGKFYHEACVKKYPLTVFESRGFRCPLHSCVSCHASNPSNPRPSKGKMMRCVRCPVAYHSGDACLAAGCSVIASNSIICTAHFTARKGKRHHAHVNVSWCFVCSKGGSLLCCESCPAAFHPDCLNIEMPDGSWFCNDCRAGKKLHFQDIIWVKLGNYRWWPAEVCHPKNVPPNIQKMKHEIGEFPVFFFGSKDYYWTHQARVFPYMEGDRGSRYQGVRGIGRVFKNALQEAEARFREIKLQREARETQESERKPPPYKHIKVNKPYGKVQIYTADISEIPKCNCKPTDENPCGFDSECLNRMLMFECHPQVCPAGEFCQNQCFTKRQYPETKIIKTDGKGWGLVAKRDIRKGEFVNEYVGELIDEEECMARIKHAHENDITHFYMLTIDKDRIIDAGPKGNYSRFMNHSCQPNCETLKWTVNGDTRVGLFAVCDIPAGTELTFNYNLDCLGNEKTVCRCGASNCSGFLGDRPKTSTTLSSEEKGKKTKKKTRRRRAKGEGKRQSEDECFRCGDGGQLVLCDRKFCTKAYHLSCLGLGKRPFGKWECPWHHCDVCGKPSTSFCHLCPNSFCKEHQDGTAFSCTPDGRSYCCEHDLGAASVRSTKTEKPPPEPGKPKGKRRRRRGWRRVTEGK

[22] = Luminescence Cell-Based Dose Confirmation HTS to Identify Activators of 5'UTR Stem-Loop Driven Alpha-Synuclein mRNA Translation in H4 Neuroglioblastoma Cells. [Related pubchem assays: 1829 (Project Summary), 1814 (Primary HTS)]; format: functional
[23] = target: T5, Polyadenylate-binding protein 1 (Homo sapiens, UniProt P11940); experiment: PABP1 MLLE–PAM2 interaction inhibitors, dose response, miRNA deadenylation inhibitor project, biochemical, fluorescence polarization, Cy5-PAM2 peptide, secondary (AID 602260); format: functional; details: read-out: IC50_Mean
T5 sequence (P11940 whole entry): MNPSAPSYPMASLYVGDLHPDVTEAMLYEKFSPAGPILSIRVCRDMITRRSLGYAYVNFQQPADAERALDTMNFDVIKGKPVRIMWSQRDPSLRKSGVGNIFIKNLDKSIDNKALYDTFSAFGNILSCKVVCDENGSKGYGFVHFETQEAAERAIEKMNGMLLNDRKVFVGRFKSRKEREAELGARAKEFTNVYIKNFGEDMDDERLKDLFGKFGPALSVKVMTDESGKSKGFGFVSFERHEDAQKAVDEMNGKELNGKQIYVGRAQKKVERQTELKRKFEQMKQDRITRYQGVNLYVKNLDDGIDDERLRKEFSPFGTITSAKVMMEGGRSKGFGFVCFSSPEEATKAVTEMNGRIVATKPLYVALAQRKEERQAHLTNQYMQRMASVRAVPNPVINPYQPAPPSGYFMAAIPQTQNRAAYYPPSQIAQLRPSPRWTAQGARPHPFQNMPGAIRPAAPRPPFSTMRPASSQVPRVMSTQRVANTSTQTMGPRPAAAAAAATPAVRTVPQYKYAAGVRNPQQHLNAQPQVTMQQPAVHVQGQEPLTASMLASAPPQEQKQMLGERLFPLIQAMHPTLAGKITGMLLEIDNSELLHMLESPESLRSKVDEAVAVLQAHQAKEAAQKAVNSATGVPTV

[24] = target: T5, Polyadenylate-binding protein 1; experiment: PABP1 MLLE–PAM2 binding inhibitor potency, dose response, biochemical, fluorescence polarization, FITC-PAM2 peptide (AID 602259); format: functional; details: read-out: IC50_Mean
[25] = target: FAD-linked sulfhydryl oxidase ALR (Homo sapiens, UniProt P55789); experiment: inhibitors of human ALR sulfhydryl oxidase, dose response, biochemical, H2O2 detection, luminescence, cherry-pick (AID 493248)
Sequence of FAD-linked sulfhydryl oxidase ALR (P55789 whole entry): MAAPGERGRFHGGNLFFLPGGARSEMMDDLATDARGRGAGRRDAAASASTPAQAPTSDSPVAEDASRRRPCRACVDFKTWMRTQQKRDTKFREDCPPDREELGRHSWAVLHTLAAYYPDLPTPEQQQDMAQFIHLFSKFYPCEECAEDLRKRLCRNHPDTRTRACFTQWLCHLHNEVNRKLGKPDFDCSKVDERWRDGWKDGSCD

[26] = cytotoxicity in HEK-293T cells, dose response, cytotoxicity control for BCR NF-kB inhibitor project, luminescence, B-cell screen hits (AID 489021); format: functional, cell-based;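 also: HEK-293T cells carrying an NF-kB luciferase reporter; cells exposed to compound for about 14 hours before viability readout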
[27] = THP-1 cell cytotoxicity, dose response, cytotoxicity control for non-replicating M. tuberculosis project (AID 489025); format: functional
[28] = Luminescence Cell-Based Dose Response HTS to Identify Activators of Luciferase Translation or Activity in H4 […] Cells. [Related pubchem assays: 1829 (Project Summary), 1814 (Primary HTS)]; format: functional
H4 = experiment: Luminescence Cell-Based Dose Response HTS to Identify Activators of 5'UTR Stem-Loop Driven Prion Protein mRNA Translation in H4 Neuroglioblastoma Cells. [Related pubchem assays: 1829 (Project Summary), 1814 (Primary HTS)]; format: functional; details: Homo sapiens
[29] = target: T6, Mannose-6-phosphate isomerase (Homo sapiens, UniProt P34949); experiment: human PMI inhibitors, high substrate, primary screen, biochemical, fluorescence intensity, high mannose 6-phosphate (AID 1220)
T6 sequence (P34949 whole entry): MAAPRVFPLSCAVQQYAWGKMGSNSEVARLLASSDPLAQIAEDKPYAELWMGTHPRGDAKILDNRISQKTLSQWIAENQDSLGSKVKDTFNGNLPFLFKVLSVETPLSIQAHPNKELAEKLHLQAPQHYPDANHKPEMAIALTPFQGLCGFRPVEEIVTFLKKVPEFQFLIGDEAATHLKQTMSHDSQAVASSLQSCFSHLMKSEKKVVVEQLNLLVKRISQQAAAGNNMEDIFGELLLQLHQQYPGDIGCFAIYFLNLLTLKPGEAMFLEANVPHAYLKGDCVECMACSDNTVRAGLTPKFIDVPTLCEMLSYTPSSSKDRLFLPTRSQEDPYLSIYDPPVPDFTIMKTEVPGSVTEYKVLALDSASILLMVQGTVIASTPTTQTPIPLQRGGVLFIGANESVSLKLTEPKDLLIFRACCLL

## Cc1cc(C(=O)N/N=C/c2ccc(Cl)c([N+](=O)[O-])c2)c(C)n1-c1ccc(F)cc1
HEK293 [1]
  EC50: > 59.7 µM (inactive)
HEK293 [2]
  EC50: > 59.7 µM (inactive)

## O=c1c2ccccc2[nH]c(=S)n1CCCN1CCN(c2ccccc2)CC1
Vero [3]
  IC50: > 25 µM (active)
[4]
  EC50: < 0.1 µM (active)
Cells [5]
  EC50: 0.169 µM (active)
[6]
  EC50: > 60 µM (not active)
[7]
  CC50: > 12.5 µM (active)

## Cc1ccc(CN2CCC(c3cc(-c4ccc(Cl)cc4)[nH]n3)CC2)cc1
[8]
  CC50: > 40 µM (active)
Melanocortin receptor 4
  EC50: > 89.2 µM (inactive)

## O=C1NC(=O)/C(=C\c2ccc(Oc3cnccn3)cc2)S1
[9]
  AC50: 4.71 µM (active)

## Fc1ccccc1-c1nc(NCCCN2CCOCC2)c2ccccc2n1
[10]
  IC50: 33 µM (inactive)
[11]
  IC50: 13 µM (active)

## O=c1c2ccccc2[nH]c(=S)n1CCCN1CCN(c2ccccc2F)CC1
Vero [3]
  IC50: > 25 µM (active)

## Cc1ccc(C)c(-c2csc(NC(=O)c3cnccn3)n2)c1
[4]
  EC50: 2.04 µM (active)
[6]
  EC50: 10.4 µM (active)
[12]
  CC50: 17.6 µM (active)
Cells [13]
  IC50: 3.99 µM (active)

## O=C(O)c1cccc(N2C(=O)c3ccc4c5c(ccc(c35)C2=O)C(=O)N(c2cccc(C(=O)O)c2)C4=O)c1
[14]
  IC50: 16.5 µM (active)
[15]
  IC50: 13.7 µM (active)

## Cc1ccc(Oc2ccc(NC(=O)Cn3ccsc3=N)cc2)cc1
[16]
  IC50: 13.2 µM (active)
Vero [17]
  CC50: 19.1 µM (active)
Vero [3]
  IC50: > 25 µM (active)
[7]
  CC50: 15.7 µM (active)

## CCOC(=O)/C(C#N)=C\c1c(OCC)n(CC)c2ccccc12
[18]
  CC50: 100 µM (active)

## CC(NC(=O)CN(c1cccc(C(F)(F)F)c1)S(=O)(=O)c1ccc(Cl)c([N+](=O)[O-])c1)c1ccccc1 (configuration not stated)
[19]
  IC50: 15.6 µM (inactive)

## N#CC1=C(SCc2ccc(C#N)cc2)N=C(N)C(c2nc(-c3ccccc3)cs2)C12CCCCC2 (configuration not stated)
HEK293 [1]
  EC50: > 59.6 µM (inactive)
HEK293 [2]
  EC50: > 59.6 µM (inactive)

## Cc1ccc(N2C(=O)NC(=O)/C(=C\C=C\c3ccco3)C2=O)cc1
HEK293 [1]
  EC50: > 59.6 µM (inactive)
[20]
  AC50: 2.98 µM (active)
HEK293 [2]
  EC50: > 59.6 µM (inactive)
[21]
  AC50: > 20 µM (inactive)

## Cn1cnc([N+](=O)[O-])c1Sc1ccc([N+](=O)[O-])cc1
[22]
  EC50: > 120 µM (not active)
[23]
  IC50: > 66 µM (inactive)
[24]
  IC50: > 66 µM (inactive)
[25]
  AC50: 8.39 µM (active)
[26]
  IC50: > 80 µM (inactive)
[27]
  CC50: > 40 µM (active)
[28]
  EC50: > 120 µM (not active)
[12]
  CC50: > 20 µM (active)
Cells [13]
  IC50: 10.8 µM (active)
H4
  EC50: > 120 µM (not active)

## Cc1ccc(-c2nn[nH]n2)cc1Cl
[9]
  AC50: 9.99 µM (active)

## Cc1ccc(N(C(=O)Cc2cccs2)C(C(=O)NC2CCCCC2)c2ccccn2)cc1C (configuration not stated)
HEK293 [1]
  EC50: > 59.6 µM (inactive)
HEK293 [2]
  EC50: > 0.245 µM (active)

## CN(C)C=O.Cc1cc(-c2ccco2)c(C#N)c2nc3ccccc3n12
[10]
  IC50: > 80 µM (inactive)
[29]
  IC50: > 50 µM (not active)
[11]
  IC50: 37.5 µM (inactive)
